Data as given in the supplement of paper PMC10307832.

How the values were obtained:
Experiment in all cases: relative viability (nuclei count vs DMSO), 5 days (fraction); higher = more cells survive
[1] = compound: C1CNCCC1C2=CC(=NN2)C3=CC=NC=C3 + CC(=O)c1c(C)c2cnc(Nc3ccc(N4CCNCC4)cn3)nc2n(C2CCCC2)c1=O [Palbociclib] (partner 0.5 µM)
How it was run: (§1)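 Relative viability equals treated-well nuclei counts divided by vehicle-well nuclei counts. Counts came from 4× images of lung cancer cell lines grown in 1536-well plates for 5 days after pin-tool dosing on the day after seeding. Dosing used one drug alone or a fixed anchor-drug dose plus five library-drug doses (not always all listed) in √10 steps, and values are medians of duplicate plates.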

[2] = compound: C1CNCCC1C2=CC(=NN2)C3=CC=NC=C3 + N=C(N)NC(=N)NCCc1ccccc1 [Phenformin] (partner 250 µM)
How it was run: as §1

[3] = compound: O[C@H]1CC[C@H](Nc2ncc3nc(Nc4c(F)cc(F)cc4F)n([C@H]4CCOC4)c3n2)CC1 [Tanzisertib] + CC(C)C[C@H](NC(=O)[C@H](Cc1ccccc1)NC(=O)c1cnccn1)B(O)O [Bortezomib] (partner 0.002 µM)
How it was run: as §1

[4] = compound: C[C@@H](N)c1ccc(C(=O)Nc2ccnc3[nH]ccc23)cc1 + C[C@@H](Oc1cc(-c2cnn(C3CCNCC3)c2)cnc1N)c1c(Cl)ccc(F)c1Cl [Crizotinib] (partner 1 µM)
How it was run: as §1

Row | Cell Line | relative viability ([1]; first compound 0.08 µM) | relative viability ([1]; first compound 0.8 µM) | relative viability ([1]; first compound 2.53 µM) | relative viability ([1]; first compound 8 µM) | relative viability ([2]; first compound 0.08 µM) | relative viability ([2]; first compound 0.8 µM) | relative viability ([2]; first compound 2.53 µM) | relative viability ([2]; first compound 8 µM) | relative viability ([3]; first compound 0.08 µM) | relative viability ([3]; first compound 0.253 µM) | relative viability ([3]; first compound 0.8 µM) | relative viability ([3]; first compound 2.53 µM) | relative viability ([3]; first compound 8 µM) | relative viability ([4]; first compound 0.04 µM) | relative viability ([4]; first compound 0.1265 µM) | relative viability ([4]; first compound 0.4 µM) | relative viability ([4]; first compound 1.265 µM) | relative viability ([4]; first compound 4 µM)
1 | NCI-H522 | 0.949 | 1.1 | 0.945 | 1.02 | 0.552 | 0.657 | 0.771 | 0.689 |  |  |  |  |  |  |  |  |  | 
2 | EMC-BAC-2 | 0.435 | 0.513 | 0.531 | 0.523 | 0.499 | 0.609 | 0.661 | 0.552 | 1.19 | 1.14 | 1.13 | 1.05 | 1.06 | 0.806 | 0.793 | 0.707 | 0.764 | 0.655
3 | NCI-H1355 | 0.387 | 0.324 | 0.421 | 0.38 | 0.482 | 0.463 | 0.49 | 0.456 | 1.1 | 1.34 | 1.23 | 1.23 | 1.34 | 1.04 | 1.09 | 1.19 |  | 0.941
4 | NCI-H1299 |  |  |  |  |  |  |  |  | 1.03 | 1.02 | 1.07 | 1.08 | 1.13 | 0.905 | 0.911 | 0.845 | 0.845 | 0.713
5 | LK-2 |  | 0.658 | 0.801 | 0.735 | 0.354 | 0.377 | 0.547 | 0.494 |  |  |  |  |  | 0.227 | 0.251 | 0.224 |  | 0.218
6 | NCI-H358 | 0.14 | 0.126 | 0.143 | 0.136 | 0.199 | 0.361 | 0.339 | 0.28 |  |  |  |  |  | 0.744 | 0.543 | 0.676 | 0.513 | 0.633
7 | SK-MES-1 | 0.308 | 0.316 | 0.37 | 0.353 | 0.635 | 0.68 | 0.634 | 0.603 |  |  |  |  |  | 1.01 | 0.973 | 0.94 | 0.798 | 0.757
8 | NCI-H1648 | 0.266 | 0.352 |  | 0.243 |  |  |  |  |  |  |  |  |  |  |  |  |  | 
9 | EBC-1 |  |  |  |  |  |  |  |  | 0.638 | 0.609 | 0.503 | 0.632 | 0.374 | 0.216 | 0.184 | 0.189 | 0.141 | 0.145
10 | NCI-H1395 | 0.652 | 0.587 | 0.644 | 0.613 | 0.419 | 0.342 | 0.419 | 0.497 |  |  |  |  |  |  |  |  |  | 
11 | IA-LM |  |  |  |  |  |  |  |  | 0.925 | 0.803 | 0.777 | 0.867 | 0.977 | 1.02 | 0.937 | 1.17 | 1.08 | 0.938
12 | NCI-H1703 |  |  |  |  |  |  |  |  | 0.328 | 0.326 | 0.293 | 0.377 | 0.248 | 0.565 | 0.611 | 0.641 | 0.577 | 0.71
13 | NCI-H2170 | 0.36 | 0.454 | 0.407 | 0.4 | 0.433 | 0.394 | 0.456 | 0.441 |  |  |  |  |  | 1.21 | 1.08 | 1.18 | 1.21 | 1.08
14 | NCI-H1793 | 0.296 |  | 0.329 | 0.364 | 0.307 | 0.162 | 0.441 | 0.426 |  |  |  |  |  |  |  |  |  | 
